For one compound, MIC90 results are on record in ChEMBL document CHEMBL5335768, “Expanding the knowledge around antitubercular 5-(2-aminothiazol-4-yl)isoxazole-3-carboxamides: Hit-to-lead optimization and release of a novel antitubercular chemotype via scaffold derivatization” (Eur J Med Chem, 2023).

Assay [1] has as its system Mycobacterium tuberculosis. Nature of the assay: microbe, parasite or virus in culture. Conditions: IC2, 504 h.
In assay [2] the test system is Mycobacterium tuberculosis. Nature of the assay: Antitubercular activity against STR/INH/RIF/EMB/ETH-resistant Mycobacterium tuberculosis IC1 assessed as inhibition of bacterial growth measured after 3 weeks by broth microdilution method. Conditions: IC1, 504 h. The assay is classed as functional. On the technique in general: Broth dilution looks for growth in wells or tubes with falling amounts of substance.

`NNC(=O)c1ccncc1` [ISONIAZID]: the MIC90 in assay [1] and in assay [2] was more than 0.2 µg/mL in each case.
